# Experimental data taken from US12630509B2, “Heterocyclic NMDA antagonists” (TAKEDA PHARMACEUTICAL COMPANY LIMITED, priority 2019, dated 2026).
# Test system: not given
# Assay: not given
# Conditions: continuous intravenous administration; cited from earlier work
row,Compound,treatment-resistant depression symptoms
1,"C[C@@H]([C@@H](O)c1ccc(O)cc1)N1CCC(O)(c2ccccc2)CC1 [CP-101,606]",significantly improved

# Test system: not given
# Assay: not given
# Conditions: rodents; cited from earlier work
row,Compound,number of occurrences and depth of cortical spreading depression
1,"C[C@@H]([C@@H](O)c1ccc(O)cc1)N1CCC(O)(c2ccccc2)CC1 [CP-101,606]",suppress the number of occurrences of and the depth of cortical spreading depression
2,Ro25-6981,suppress the number of occurrences of and the depth of cortical spreading depression

# Test system: not given
# Assay: not given
# Conditions: in vivo; cited from earlier work
row,Compound,pain threshold value
1,CC(C(O)c1ccc(O)cc1)N1CCC(Cc2ccccc2)CC1 (centres unmarked) [Ifenprodil],increased

# Molecular target: NMDA receptor composed of four subunits including two sets of heterodimers of NR1 and NR2B (GRIN1/GRIN2B) expressed in HEK 293 cells (Homo sapiens, UniProt Q13224)
# Assay: NR2B Ca2+ influx assay
# Format: cell-based
# Conditions: HEK293, final concentration 10 μM; glutamic acid and glycine induced Ca2+ influx, HEK 293 cells expressing human GRIN1 and GRIN2B; read-out: % inhibited(10 μM)
# Experimental: The HEK 293 cells that express GRIN1 and GRIN2B were purchased from ChanTest (human NMDA (NR1/NR2B) receptor-expressing, stable replicating cell line (HEK 293) catalog no. CT6121).
# Intracellular calcium-ion (Ca^2+) influx caused by glycine and glutamic acid respectively binding to NR1 and NR2B was used as an index of NMDA receptor activation.
# The HEK 293 cells expressing GRIN1 and GRIN2B were cultured in a cell culture flask in an incubator (37° C., in 5% CO2) using a DMEM/F-12 (Cosmo Bio, 10-092-CM) medium supplemented with 10% FBS (fetal bovine serum, AusGene), 100 units/mL penicillin, 100 μg/mL streptomycin, 500 μg/mL neomycin, 100 μg/mL Zeocin (registered trademark of Invitrogen), and 5 μg/mL blasticidin.
# On the day before the assay, the cells were detached from the flask by trypsinization, suspended in a seeding medium (DMEM (Invitrogen, 31053) supplemented with 10% FBS, 100 units/mL penicillin, and 100 μg/mL streptomycin) so as to be 8×10^5 cells/mL, seeded at 25 μL per well in a 384-well plate (Falcon, 356663) so as to be 20,000 cells/well, and cultured overnight using the incubator. On the day of the assay, tetracycline (Wako Pure Chemical, 209-16561) was diluted with the seeding medium at 2 μg/mL, and added at 25 μL/well to the plate into which the cells were seeded, and this was cultured for 2 hours in the incubator. Afterward, the medium was removed and washed with an assay buffer (137 mM NaCl, 4 mM KCl, 1.8 mM CaCl2), 10 mM HEPES (pH 7.2), 10 mM glucose, 0.1% BSA) at 50 μL/well. Next, a loading buffer (buffer wherein 2.5 μM Fluo-4 AM, 2 mM amaranth, and 1 mM tartrazine are added to the assay buffer) was added at 25 μL/well, and this was incubated in the incubator for 30 minutes and for 15 minutes at room temperature. Solutions wherein the Example compounds were diluted with the above-mentioned assay buffer so as to be 30 μM (final concentration 10 μM) were added at 25 μL/well, and these were left standing for 15 minutes at room temperature. Using FDSS7000EX/μCELL (Hamamatsu Photonics), an assay buffer including 30 μM glutamic acid and 30 μM glycine was added at 25 μL/well, and a fluorescence signal of an Excitation wavelength of 480 nm and an Emission wavelength of 540 nm was measured every 3 seconds for 5 minutes. The inhibitory activity was calculated as a relative activity value (inhibitory rate) wherein relative to an integrated value of florescence values of each well, an integrated value of fluorescence values of a well into which an assay buffer without glutamic acid and glycine was defined as 100% inhibition.
# Chain of NMDA receptor composed of four subunits including two sets of heterodimers of NR1 and NR2B (GRIN1/GRIN2B) expressed in HEK 293 cells (Q13224 27-1484, other chains not shown): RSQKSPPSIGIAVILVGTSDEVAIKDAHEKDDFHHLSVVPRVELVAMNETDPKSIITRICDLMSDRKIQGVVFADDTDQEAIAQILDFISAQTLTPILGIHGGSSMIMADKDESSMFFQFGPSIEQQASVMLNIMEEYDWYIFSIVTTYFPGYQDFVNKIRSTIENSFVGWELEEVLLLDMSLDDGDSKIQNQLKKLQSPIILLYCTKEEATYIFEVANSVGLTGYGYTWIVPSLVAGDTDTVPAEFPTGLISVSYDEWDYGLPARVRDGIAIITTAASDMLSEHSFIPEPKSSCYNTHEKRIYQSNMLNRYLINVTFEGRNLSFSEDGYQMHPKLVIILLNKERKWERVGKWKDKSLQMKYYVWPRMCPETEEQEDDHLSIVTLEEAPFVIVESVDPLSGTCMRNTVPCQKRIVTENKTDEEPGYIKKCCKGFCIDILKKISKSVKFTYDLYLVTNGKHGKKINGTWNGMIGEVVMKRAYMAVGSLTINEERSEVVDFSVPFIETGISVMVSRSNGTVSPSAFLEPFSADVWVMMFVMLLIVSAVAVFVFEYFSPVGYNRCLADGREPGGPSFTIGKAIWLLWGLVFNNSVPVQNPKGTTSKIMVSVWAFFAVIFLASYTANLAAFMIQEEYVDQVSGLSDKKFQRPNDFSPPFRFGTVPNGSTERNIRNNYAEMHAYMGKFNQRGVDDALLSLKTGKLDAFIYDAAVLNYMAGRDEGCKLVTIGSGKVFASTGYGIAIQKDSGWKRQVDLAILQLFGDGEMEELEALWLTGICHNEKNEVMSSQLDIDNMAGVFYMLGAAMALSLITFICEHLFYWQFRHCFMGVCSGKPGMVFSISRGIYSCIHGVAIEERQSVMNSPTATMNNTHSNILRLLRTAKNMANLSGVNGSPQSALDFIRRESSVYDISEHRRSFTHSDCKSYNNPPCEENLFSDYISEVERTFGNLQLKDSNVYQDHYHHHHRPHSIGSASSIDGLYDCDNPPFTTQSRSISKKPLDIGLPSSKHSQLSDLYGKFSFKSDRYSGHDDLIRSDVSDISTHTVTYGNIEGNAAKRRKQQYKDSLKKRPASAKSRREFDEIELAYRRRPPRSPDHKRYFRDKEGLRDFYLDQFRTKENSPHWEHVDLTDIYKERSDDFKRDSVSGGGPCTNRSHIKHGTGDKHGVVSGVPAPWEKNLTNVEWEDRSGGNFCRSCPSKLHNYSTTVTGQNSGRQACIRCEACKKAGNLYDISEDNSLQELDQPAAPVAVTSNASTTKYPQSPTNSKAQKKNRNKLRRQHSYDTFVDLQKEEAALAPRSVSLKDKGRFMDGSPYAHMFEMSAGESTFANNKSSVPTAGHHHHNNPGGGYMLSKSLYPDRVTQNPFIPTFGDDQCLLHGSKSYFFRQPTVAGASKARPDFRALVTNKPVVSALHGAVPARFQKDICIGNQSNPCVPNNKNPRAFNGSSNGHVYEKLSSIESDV
row,Compound,inhibition at 10 µM [%]
1,"C[C@H]1[C@@H](O)C(F)(F)C(=O)N1Cc1ccc(Oc2c(F)cc(F)cc2F)nc1 [Example 34, (4R,5S)-3,3-difluoro-4-hydroxy-5-methyl-1-{[6-(2,4,6-trifluorophenoxy)pyridin-3-yl]methyl}pyrrolidin-2-one]",97
2,"C[C@H]1CNC(=O)N1Cc1ccc(Oc2ccc(F)cc2F)nc1 [Example 35, (5S)-1-{[6-(2,4-difluorophenoxy)pyridin-3-yl]methyl}5-methylimidazolidin-2-one]",96
3,"C[C@H]1[C@@H](O)C(F)(F)C(=O)N1Cc1ccc(Oc2ccc(F)cc2F)nc1 [Example 36, (4R,5S)-1-{[6-(2,4-difluorophenoxy)pyridin-3-yl]methyl}-3,3-difluoro-4-hydroxy-5-methylpyrrolidin-2-one]",97
4,"C[C@H]1[C@@H](O)CC(=O)N1Cc1ccc(Oc2ccc(F)cc2F)nc1 [Example 37, (4S,5S)-1{[-6-(2,4-difluorophenoxy)pyridin-3-yl]methyl}-4-hydroxy-5-methylpyrrolidin-2-one]",97
5,"C[C@H]1[C@@H](O)CC(=O)N1Cc1ccc(Oc2ccc(C(F)F)cc2F)nc1 [Example 38, (4S,5S)-1-({6-[4-(difluoromethyl)-2-fluorophenoxy]pyridin-3-yl}methyl)-4-hydroxy-5-methylpyrrolidin-2-one]",95
6,"Cc1ccc(Oc2ccc(CN3C(=O)OCC3CF)cn2)c(F)c1 (centres unmarked) [Example 39, 4-(fluoromethyl)-3-{[6-(2-fluoro-4-methylphenoxy)pyridin-3-yl]methyl}-1,3-oxazolidin-2-one]",92
7,"Cc1ccc(Oc2ccc(CN3C(=O)OCC3C(F)F)cn2)c(F)c1 (centres unmarked) [Example 40, 4-(difluoromethyl)-3-{[6-(2-fluoro-4-methylphenoxy)pyridin-3-yl]methyl}-1,3-oxazolidin-2-one]",95
8,"C[C@H]1[C@@H](O)CC(=O)N1Cc1ccc(Oc2ccc(C(F)(F)F)cc2F)nc1 [Example 41, (4S,5S)-1-({6-[2-fluoro-4-(trifluoromethyl)phenoxy]pyridin-3-yl}methyl)-4-hydroxy-5-methylpyrrolidin-2-one]",95
9,"C[C@H]1CCC(=O)N1Cc1cnc(Oc2ccc(C(F)F)cc2F)nc1 [Example 42, (5S)-1-({2-[4-(difluoromethyl)-2-fluorophenoxy]pyrimidin-5-yl}methyl)-5-methylpyrrolidin-2-one]",97
10,"C[C@H]1[C@@H](O)CC(=O)N1Cc1ccc(Oc2ccc(Cl)cc2F)nc1 [Example 43, (4S,5S)-1-{[6-(4-chloro-2-fluorophenoxy)pyridin-3-yl]methyl}4-hydroxy-5-methylpyrrolidin-2-one]",98
11,"Cc1ccc(Oc2ncc(CN3C(=O)CC[C@@H]3C)cn2)c(F)c1 [Example 44, (5S)-1-{[2-(2-fluoro-4-methylphenoxy)pyrimidin-5-yl]methyl}-5-methylpyrrolidin-2-one]",97
12,"C[C@H]1CCC(=O)N1Cc1cnc(Oc2ccc(F)cc2F)nc1 [Example 45, (5S)-1-{[2-(2,4-difluorophenoxy)pyrimidine-5-yl]methyl}-5-methylpyrrolidine-2-one]",96
13,"C[C@H]1CCC(=O)N1Cc1cnc(Oc2ccc(Cl)cc2F)nc1 [Example 46, (5S)-1-{[2-(4-chloro-2-fluorophenoxy)pyrimidin-5-yl]methyl}-5-methylpyrrolidin-2-one]",97
14,"C[C@H]1CCC(=O)N1Cc1ccc(Oc2ccc(C(F)F)cc2F)nc1 [Example 47, (5S)-1-({6-[4-(difluoromethy)-2-fluorophenoxy]pyridin-3-yl}methyl)-5-methylpyrrolidin-2-one]",99
15,"C[C@H]1CCC(=O)N1Cc1ccc(Oc2ccc(F)cc2F)nc1 [Example 48, (5S)-1-{[6-(2,4-difluorophenoxy)pyridin-3-yl]methyl}-5-methylpyrrolidin-2-one]",98
16,"C[C@H]1COC(=O)N1Cc1cnc(Oc2ccc(Cl)cc2F)nc1 [Example 49, (4S)-3-{[2-(4-chloro-2-fluorophenoxy)pyrimidin-5-yl]methyl}-4-methyl-1,3-oxazolidin-2-one]",97
17,"C[C@H]1COC(=O)N1Cc1ccc(Oc2ccc(C(F)F)cc2F)nc1 [Example 50, (4S)-3-({6-[4-(difluoromethyl)-2-fluorophenoxy]pyridin-3-yl}methyl)-4-methyl-1,3-oxazolidin-2-one]",98

# Test system: not given
# Assay: not given
# Conditions: in vivo; cited from earlier work
# Remark: another data set of the same source
row,Compound,peripheral symptoms of dementia
1,CC12CC3CC(C)(C1)CC(N)(C3)C2 [memantine],partially ameliorated

# Test system: not given
# Assay: not given
# Conditions: intravenous single administration; cited from earlier work
row,Compound,depression symptoms associated with major depression and bipolar disorder
1,CNC1(c2ccccc2Cl)CCCCC1=O (centres unmarked) [ketamine],rapidly and continuously improves depression symptoms

# Test system: NMDA receptor containing the NR2B subunit
# Assay: [3H]MK-801 binding test in vivo
# Set-up: species or system Sprague Dawley rats
# Conditions: [3H]MK-801 binding inhibitory rate in rat hippocampus, vehicle control 100%, excess MK-801 maleate 0%
# Experimental: In order to confirm that compounds of the present disclosure exert functional antagonistic action on an NMDA receptor containing the NR2B subunit in vivo, a binding test was performed using tritium-labeled form of MK-801 ((5R,10S)-5-methyl-10,11-dihydro-5H-5,10-epiminodibenzo[a,d][7]annulene) ([3H]MK-801), which is a compound capable of binding to the opening site of the NMDA receptor.
# The example compound (3 mg/kg/2 mL, 0.5% MC water) or vehicle (0.5% MC water 2 ml) was orally administered (p.o.) to Sprague Dawley rats (body weight 180-260 g). After a certain time (around after time-to maximum blood concentration), [3H]MK-801 (20 μCi/kg/mL, Muromachi Kikai) was intravenously administered. After 10 min, the rats were euthanized by decapitation, and subjected to craniotomy, and the hippocampus was collected. The collected hippocampus was homogenized in 30 volumes (30 mL per 1 g tissue) ice-cooled 20 mM HEPES (pH7.5, Hampton Research) using a homogenizer (T10 basic Ultra-Turrax) for 10 sec. […] The filter was washed four times with ice-cooled saline (5 mL, Otsuka Pharmaceutical), put into a scintillation vial, and then 10 mL of liquid scintillator A (FUJIFILM Wako Pure Chemical Corporation) was added thereto, and the residual radioactivity was counted using liquid scintillation counter (ALOKA LSC-6100).
# Separately, the residual radioactivity in 100 μL of the homogenate before the filtration was counted in the same way. The value of [the residual radioactivity in the filter/the residual radioactivity in the 100 μL of the homogenate] was calculated as a [3H]MK-801 binding rate to the NMDA receptor expressing in each individual hippocampus tissue. […] The difference between the percentage of [^3H]MK-801 binding rate in the group orally administered with the example compound and that in the vehicle control group (100%) was analyzed as [^3H]MK-801 binding inhibitory rate by the example compound.
row,Compound,"Inhibitory Rate (3 mg/kg, p.o.) [%]"
1,"C[C@H]1[C@@H](O)CC(=O)N1Cc1ccc(Oc2ccc(C(F)F)cc2F)nc1 [Example 38, (4S,5S)-1-({6-[4-(difluoromethyl)-2-fluorophenoxy]pyridin-3-yl}methyl)-4-hydroxy-5-methylpyrrolidin-2-one]",22
2,"C[C@H]1CCC(=O)N1Cc1cnc(Oc2ccc(F)cc2F)nc1 [Example 45, (5S)-1-{[2-(2,4-difluorophenoxy)pyrimidine-5-yl]methyl}-5-methylpyrrolidine-2-one]",13
3,"C[C@H]1COC(=O)N1Cc1cnc(Oc2ccc(Cl)cc2F)nc1 [Example 49, (4S)-3-{[2-(4-chloro-2-fluorophenoxy)pyrimidin-5-yl]methyl}-4-methyl-1,3-oxazolidin-2-one]",19
